What was measured:
Btk = Btk (Homo sapiens (Human), UniProt Q06187); assay: Btk acellular kinase assay (TR-FRET)
DHL-6 cells = assay: Growth of DHL-6 cells (Alamar Blue); format: cell-based; conditions: 24 h or 48 h treatment

Sequence of Btk (Q06187 whole entry): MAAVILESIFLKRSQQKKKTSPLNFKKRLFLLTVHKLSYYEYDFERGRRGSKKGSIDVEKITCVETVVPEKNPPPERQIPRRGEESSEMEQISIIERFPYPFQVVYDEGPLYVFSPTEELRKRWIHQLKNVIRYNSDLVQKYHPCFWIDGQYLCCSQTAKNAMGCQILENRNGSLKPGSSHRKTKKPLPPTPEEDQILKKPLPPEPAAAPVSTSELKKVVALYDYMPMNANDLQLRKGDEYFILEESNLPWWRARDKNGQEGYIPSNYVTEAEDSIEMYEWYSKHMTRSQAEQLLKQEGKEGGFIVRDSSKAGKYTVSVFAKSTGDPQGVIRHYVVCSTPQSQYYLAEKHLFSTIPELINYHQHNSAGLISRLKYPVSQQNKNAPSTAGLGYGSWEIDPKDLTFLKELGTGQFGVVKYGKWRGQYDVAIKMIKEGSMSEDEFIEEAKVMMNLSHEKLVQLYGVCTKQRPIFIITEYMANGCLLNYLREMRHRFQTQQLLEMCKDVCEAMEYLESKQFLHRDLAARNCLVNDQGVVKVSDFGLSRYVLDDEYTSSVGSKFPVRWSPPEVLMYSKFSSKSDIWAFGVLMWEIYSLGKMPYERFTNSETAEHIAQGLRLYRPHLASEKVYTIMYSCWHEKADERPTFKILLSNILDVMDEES

fold less potent than compound 4 (Btk; Btk potency) [fold] | IC50 (Btk; read-out: Btk IC50, acellular TR-FRET kinase assay, [ATP]=Km) [nM] | SMILES | growth of DHL-6 cells (DHL-6 cells)
28 | – | C/C=C/C(=O)N1CCCC(n2nc(-c3ccc(Oc4ccccc4)cc3)c3c(N)ncnc32)C1 (stereo not drawn) [Compound 5, (E)-1-(3-(4-amino-3-(4-phenoxyphenyl)-1H-pyrazolo[3,4-d]pyrimidin-1-yl)piperidin-1-yl)but-2-en-1-one] | –
– | 2.5 | CN(C)C/C=C/C(=O)N1CCC[C@@H](n2nc(-c3ccc(Oc4ccccc4)cc3)c3c(N)ncnc32)C1 [Compound 15, (E)-1-(3-(4-amino-3-(4-phenoxyphenyl)-1H-pyrazolo[3,4-d]pyrimidin-1-yl)piperidin-1-yl)-4-(dimethylamino)but-2-en-1-one] | inhibit growth
